Measured values reported in BigSolDB 2.1.

`O=C(O)CCCCCCC(=O)O` gave a solubility (mole fraction) (in THF, 283.15 K) of 0.0356, a solubility (mole fraction) (in THF, 289.75 K) of 0.0437 and a solubility (mole fraction) (in THF, 296.85 K) of 0.0546. For the same compound, the solubility (mole fraction) (in THF, 303.75 K) was 0.0665, the solubility (mole fraction) (in THF, 310.75 K) was 0.0806 and the solubility (mole fraction) (in THF, 317.95 K) was 0.0982. It also gave a solubility (mole fraction) (in THF, 324.95 K) of 0.117, a solubility (mole fraction) (in THF, 331.95 K) of 0.141 and a solubility (mole fraction) (in acetone, 283.15 K) of 0.006. For the same compound, the solubility (mole fraction) (in acetone, 289.95 K) was 0.00833, the solubility (mole fraction) (in acetone, 296.85 K) was 0.0115 and the solubility (mole fraction) (in acetone, 303.75 K) was 0.0154. The solubility (mole fraction) (in acetone, 310.75 K) was 0.0208, the solubility (mole fraction) (in acetone, 317.55 K) was 0.0292 and the solubility (mole fraction) (in acetone, 322.75 K) was 0.035. It also gave a solubility (mole fraction) (in ethanol, 283.25 K) of 0.0158, a solubility (mole fraction) (in ethanol, 290.35 K) of 0.021 and a solubility (mole fraction) (in ethanol, 297.05 K) of 0.0281. The solubility (mole fraction) (in ethanol, 303.85 K) was 0.0374, the solubility (mole fraction) (in ethanol, 310.95 K) was 0.0491 and the solubility (mole fraction) (in ethanol, 317.85 K) was 0.0627. It also gave a solubility (mole fraction) (in ethanol, 324.85 K) of 0.0795, a solubility (mole fraction) (in ethyl acetate, 283.15 K) of 0.00167 and a solubility (mole fraction) (in ethyl acetate, 289.95 K) of 0.00227. It also gave a solubility (mole fraction) (in ethyl acetate, 296.85 K) of 0.0031, a solubility (mole fraction) (in ethyl acetate, 303.95 K) of 0.00462 and a solubility (mole fraction) (in ethyl acetate, 310.95 K) of 0.0065. It also gave a solubility (mole fraction) (in ethyl acetate, 317.75 K) of 0.00902, a solubility (mole fraction) (in ethyl acetate, 324.85 K) of 0.0125 and a solubility (mole fraction) (in ethyl acetate, 331.75 K) of 0.0186. For the same compound, the solubility (mole fraction) (in isopropanol, 283.15 K) was 0.0145, the solubility (mole fraction) (in isopropanol, 289.95 K) was 0.0198 and the solubility (mole fraction) (in isopropanol, 296.95 K) was 0.0271. It also gave a solubility (mole fraction) (in isopropanol, 303.55 K) of 0.0368, a solubility (mole fraction) (in isopropanol, 310.95 K) of 0.0486 and a solubility (mole fraction) (in isopropanol, 317.95 K) of 0.0639. The solubility (mole fraction) (in isopropanol, 324.75 K) was 0.0816, the solubility (mole fraction) (in methanol, 283.25 K) was 0.0179 and the solubility (mole fraction) (in methanol, 290.35 K) was 0.0242. It also gave a solubility (mole fraction) (in methanol, 297.05 K) of 0.0322, a solubility (mole fraction) (in methanol, 303.85 K) of 0.0443 and a solubility (mole fraction) (in methanol, 310.95 K) of 0.0572. The solubility (mole fraction) (in methanol, 317.85 K) was 0.0748, the solubility (mole fraction) (in methanol, 324.85 K) was 0.0951 and the solubility (mole fraction) (in n-propanol, 283.15 K) was 0.012. The solubility (mole fraction) (in n-propanol, 289.85 K) was 0.017, the solubility (mole fraction) (in n-propanol, 296.75 K) was 0.0233 and the solubility (mole fraction) (in n-propanol, 303.85 K) was 0.0308. For the same compound, the solubility (mole fraction) (in n-propanol, 310.75 K) was 0.0422, the solubility (mole fraction) (in n-propanol, 317.75 K) was 0.0559 and the solubility (mole fraction) (in n-propanol, 325.05 K) was 0.0718. The solubility (mole fraction) (in water, 283.25 K) was 9.14e-05, the solubility (mole fraction) (in water, 290.25 K) was 0.000131 and the solubility (mole fraction) (in water, 297.15 K) was 0.0002. It also gave a solubility (mole fraction) (in water, 303.85 K) of 0.000291, a solubility (mole fraction) (in water, 310.85 K) of 0.000439 and a solubility (mole fraction) (in water, 318.15 K) of 0.000662. It also gave a solubility (mole fraction) (in water, 325.15 K) of 0.00107, a solubility (mole fraction) (in water, 332.45 K) of 0.0017 and a solubility (mole fraction) (in water, 339.15 K) of 0.00265.
